Measured values published in patent US20260091026A1, “METHODS OF TREATING INFLAMMATORY DISEASES” (INTERLINE THERAPEUTICS, INC., priority 2023, published 2026).
Like-named read-outs stand apart in the source and are kept apart here.

Key:
[1] = target: T1, RIPK2 (KD)/XIAP (BIR2) (Homo sapiens, UniProt O43353); assay: RIPK2-XIAP binding competition PPI assay (TR-FRET); conditions: for Emax / PPI Amax: 50 nM of GSK583 = -100% activity; for Emax: read-out: PPI Amax; for IC50: GST-RIPK2 / His-XIAP (BIR2)-avi, 120 min at 23° C.
T1 construct: made in house; host or cells: baculovirus-infected Sf9 cells
Text: The ability of selected compounds of Formula (I) to inhibit the binding of an His-XIAP (BIR2)-avi fusion protein to a GST-RIPK2 fusion protein was quantified employing the TR-FRET-based competition assay as described in the following paragraphs.
Recombinant fusion protein of N-terminal Glutathione-S-Transferase (GST) and a fragment of human RIPK2 (amino acids 1-310 of accession number 043353), expressed in baculovirus infected Sf9 cells, purified via glutathione affinity chromatography, was used as GST-RIPK2 fusion protein. Recombinant fusion protein of N-terminal 6xHistidine (His), a fragment of human XIAP (amino acids 152-231 of accession number P98170), and C-terminal avi tag, expressed in baculovirus infected Sf9 cells, purified via Nickel NTA affinity chromatography, was used as the His-XIAP (BIR2)-avi fusion protein.
For the assay, a working solution of 1 nM GST-RIPK2, 25 nM His-XIAP (BIR2)-avi, 6 nM Anti-His-XL665 […] (Revvity Catalogue No. 61HISXLB), and 0.5 nM Anti-GST-Tb(Revvity Catalogue No. 61GSTTLB) in 25 mM Tris-HCl 7.5, 0.5 mM ethylene glycol-bis(2-aminoethylether)-N,N,N′,N′-tetraacetic acid (EGTA), 10 mM magnesium chloride (MgCl2), 2.5 mM dithiothreitol (DTT), 0.01% (w/v) bovine serum albumin (BSA), 0.005% (w/v) Pluronic F-127 (Sigma), 0.5 mM sodium ortho-vanadate, 5 mM-Glycerophosphate disodium salt hydrate (BGP) was prepared. 50 nL of a 100-fold concentrated solution of each test compound in DMSO was dispensed via acoustic dispensing into a white low volume 384-well microtiter plate (Perkin Elmer Catalogue No. 6008280). Subsequently, 5 μL of the assay working solution were added.
The resulting mixture was incubated 120 min at 23° C. Subsequently, the amount of complex formed by the GST-RIPK2, XIAP (BIR2)-avi, Anti-His-XL665, and Anti-GST-Tb was evaluated by measurement of the resonance energy transfer from the Tb-cryptate to the XL665. Therefore, the fluorescence emissions at 520 nm and 665 nm after excitation at 337 nm were measured in a TR-FRET reader, e.g. a Pherastar FS(BMG Labtechnologies, Offenburg, Germany) or an Envision (PerkinElmer). The ratio of the emissions at 665 nm and at 520 nm was taken as the measure of the amount of the complex. The data were normalized (assay reaction without inhibitor=0% activity, 50 nM of GSK583=−100% activity).

[2] = tested on: THP1-Dual cells, NF-κB pathway (SEAP); assay: THP-1 Dual cell SEAP assay (L18-MDP stimulated); format: cell-based; conditions: 10 ng/mL L18-MDP, 20-24 h, SEAP readout, read-out: IFNγ THP1 IC50
Experimental: THP1-Dual™ cells (InvivoGen Cat #thpd-nfis) allow simultaneous assessment of the NF-κB pathway, by monitoring the activity of secreted embryonic alkaline phosphatase (SEAP) as well as the IRF pathway, by assessing the activity of a secreted luciferase (Lucia). Cells were cultured according to manufacturers' recommendations. For the assay, cell concentration was adjusted to 7.14×10^5 cells/mL in assay media (RPMI 1640, 2 mM L-Glutamine, 25 mM HEPES, 10% fetal bovine serum (heat-inactivated for 30 min at 56° C.), Pen-Strep (100 U/mL)) and 35 μL of cell suspension (˜25,000 cells) per well were added to a flat bottom 384-well plate (white opaque). Plate was centrifuged at 300 g for 2 min, compounds were added in serial dilution series according to the plate layout (volumes ˜500 nL-0.0152 nL) and plate was incubated at 37° C. in 5% CO2 for 30 min. Using assay media, a L18-MDP stock solution, that results in a final concentration of 10 ng/mL L18-MDP in each well when adding 15 μL to each well, was prepared. 15 μL of L18-MDP stock solution was added to each well, while 15 μL of assay media was added to the negative control wells. Plates were subsequently incubated at 37° C. in 5% CO2 overnight (20-24 h).
For the SEAP assay: without disturbing the cells at the bottom of the well, 15 μL supernatant was transferred to a clear 384-well flat bottom plate and 35 μL QUANTI-Blue Solution per well was added. Following a 2 h incubation at 37° C., the optical density (OD) was measured at 620-655 nm using a microplate reader (PheraStar FS microplate reader with protocol for OD 620-655 nm).
Values of media-only wells were subtracted and % inhibition for each compound concentration relative to the DMSO/L18-MDP-treated controls was calculated. Inhibition values+/−SD were fitted by non-linear regression using Prism software (GraphPad PRISM Software) to calculate IC50 values.

T1 sequence (O43353 1-310): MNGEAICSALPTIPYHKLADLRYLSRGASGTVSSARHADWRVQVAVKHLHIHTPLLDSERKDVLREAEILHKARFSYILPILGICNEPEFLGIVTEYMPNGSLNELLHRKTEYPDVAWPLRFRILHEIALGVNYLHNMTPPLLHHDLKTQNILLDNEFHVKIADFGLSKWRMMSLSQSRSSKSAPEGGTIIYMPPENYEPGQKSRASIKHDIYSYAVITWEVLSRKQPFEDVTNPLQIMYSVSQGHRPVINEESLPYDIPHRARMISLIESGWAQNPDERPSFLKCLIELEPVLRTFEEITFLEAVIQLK

Structure (SMILES) | Emax [1] | IC50 [1] | IC50 ([2]; Homo sapiens) | PPI Amax [1] | IC50 [2]
COc1cc2ncc(-c3cc(C(=O)N[C@@H]4C[C@@H]4c4ccccc4)n(C)n3)n2cc1S(=O)(=O)C(C)(C)C (single isomer, unassigned) [Example 30, cis-(1S,2S) or (1R,2R) 3-(6-(tert-butylsulfonyl)-7-methoxyimidazo[1,2-a]pyridin-3-yl)-1-methyl-N-(2-phenylcyclopropyl)-1H-pyrazole-5-carboxamide] | 30 to 55% | > 1000 nM | > 2500 nM | – | –
COc1cc2ncc(-c3cc(C(=O)N[C@@H]4C[C@@H]4c4ccccc4)n(C)n3)n2cc1S(=O)(=O)C(C)(C)C (single isomer, unassigned) [Example 31, cis-(1R,2R) or (1S,2S) 3-(6-(tert-butylsulfonyl)-7-methoxyimidazo[1,2-a]pyridin-3-yl)-1-methyl-N-(2-phenylcyclopropyl)-1H-pyrazole-5-carboxamide] | – | > 1000 nM | – | D (Amax of ≤30%) | > 2500 nM
COc1cc2ncc(-c3cc(C(=O)N[C@@H]4C[C@H]4c4ccccc4)n(C)n3)n2cc1S(=O)(=O)C(C)(C)C (single isomer, unassigned) [Example 33, trans-(1R,2S) or (1S,2R) 3-(6-(tert-butylsulfonyl)-7-methoxyimidazo[1,2-a]pyridin-3-yl)-1-methyl-N-(2-phenylcyclopropyl)-1H-pyrazole-5-carboxamide] | ≥ 80% | 100 to 1000 nM | > 2500 nM | – | –
COc1cc2ncc(-c3cc(C(=O)N[C@@H]4C[C@H]4c4ccccc4)n(C)n3)n2cc1S(=O)(=O)C(C)(C)C (single isomer, unassigned) [Example 34, trans-(1S,2R) or (1R,2S) 3-(6-(tert-butylsulfonyl)-7-methoxyimidazo[1,2-a]pyridin-3-yl)-1-methyl-N-(2-phenylcyclopropyl)-1H-pyrazole-5-carboxamide] | – | > 1000 nM | – | A (Amax of ≥80%) | > 2500 nM
COc1cc2ncc(-c3cc(C(=O)Nc4ccccc4)n(C)n3)n2cc1S(=O)(=O)C(C)(C)C [Example 7, 3-(6-(tert-butylsulfonyl)-7-methoxyimidazo[1,2-a]pyridin-3-yl)-1-methyl-N-phenyl-1H-pyrazole-5-carboxamide] | ≥ 80% | > 1000 nM | > 2500 nM | – | –
COc1cc2ncc(-c3cc(C(=O)N[C@@H](C)c4ccccc4)n(C)n3)n2cc1S(=O)(=O)C(C)(C)C [Example 8, (S)-3-(6-(tert-butylsulfonyl)-7-methoxyimidazo[1,2-a]pyridin-3-yl)-1-methyl-N-(1-phenylethyl)-1H-pyrazole-5-carboxamide] | ≥ 80% | > 1000 nM | > 2500 nM | – | –
COc1cc2ncc(-c3cc(C(=O)N[C@H](C)c4ccccc4)n(C)n3)n2cc1S(=O)(=O)C(C)(C)C [Example 9, (R)-3-(6-(tert-butylsulfonyl)-7-methoxyimidazo[1,2-a]pyridin-3-yl)-1-methyl-N-(1-phenylethyl)-1H-pyrazole-5-carboxamide] | ≥ 80% | 10 to 100 nM | < 100 nM | – | –
COc1cc2ncc(-c3cc(C(=O)N[C@H](C)c4ccccc4F)n(C)n3)n2cc1S(=O)(=O)C(C)(C)C [Example 10, (R)-3-(6-(tert-butylsulfonyl)-7-methoxyimidazo[1,2-a]pyridin-3-yl)-N-(1-(2-fluorophenyl)ethyl)-1-methyl-1H-pyrazole-5-carboxamide] | ≥ 80% | 10 to 100 nM | 100 to 500 nM | – | –
COc1cc2ncc(-c3cc(C(=O)N[C@H](CO)c4ccccc4)n(C)n3)n2cc1S(=O)(=O)C(C)(C)C [Example 11, (S)-3-(6-(tert-butylsulfonyl)-7-methoxyimidazo[1,2-a]pyridin-3-yl)-N-(2-hydroxy-1-phenylethyl)-1-methyl-1H-pyrazole-5-carboxamide] | ≤ 30% | > 1000 nM | > 2500 nM | – | –
COc1cc2ncc(-c3cc(C(=O)N[C@H](C)c4ccc(F)cc4)n(C)n3)n2cc1S(=O)(=O)C(C)(C)C [Example 12, (R)-3-(6-(tert-butylsulfonyl)-7-methoxyimidazo[1,2-a]pyridin-3-yl)-N-(1-(4-fluorophenyl)ethyl)-1-methyl-1H-pyrazole-5-carboxamide] | ≥ 80% | 100 to 1000 nM | 500 to 2500 nM | – | –
COc1cc2ncc(-c3cc(C(=O)N[C@H](C)c4cccc(F)c4)n(C)n3)n2cc1S(=O)(=O)C(C)(C)C [Example 13, (R)-3-(6-(tert-butylsulfonyl)-7-methoxyimidazo[1,2-a]pyridin-3-yl)-N-(1-(3-fluorophenyl)ethyl)-1-methyl-1H-pyrazole-5-carboxamide] | ≥ 80% | 100 to 1000 nM | > 2500 nM | – | –
COc1cc2ncc(-c3cc(C(=O)NCc4n[nH]c5ccccc45)n(C)n3)n2cc1S(=O)(=O)C(C)(C)C [Example 14, N-((1H-indazol-3-yl)methyl)-3-(6-(tert-butylsulfonyl)-7-methoxyimidazo[1,2-a]pyridin-3-yl)-1-methyl-1H-pyrazole-5-carboxamide] | ≥ 80% | < 10 nM | 100 to 500 nM | – | –
COc1cc2ncc(-c3cc(C(=O)NCc4nn(C)c5ccccc45)n(C)n3)n2cc1S(=O)(=O)C(C)(C)C [Example 15, 3-(6-(tert-butylsulfonyl)-7-methoxyimidazo[1,2-a]pyridin-3-yl)-1-methyl-N-((1-methyl-1H-indazol-3-yl)methyl)-1H-pyrazole-5-carboxamide] | 55 to 80% | 100 to 1000 nM | > 2500 nM | – | –
COc1cc2ncc(-c3cc(C(=O)NCc4c5ccccc5nn4C)n(C)n3)n2cc1S(=O)(=O)C(C)(C)C [Example 16, 3-(6-(tert-butylsulfonyl)-7-methoxyimidazo[1,2-a]pyridin-3-yl)-1-methyl-N-((2-methyl-2H-indazol-3-yl)methyl)-1H-pyrazole-5-carboxamide] | 55 to 80% | > 1000 nM | > 2500 nM | – | –
COc1cc2ncc(-c3cc(C(=O)NCc4cnn5ccccc45)n(C)n3)n2cc1S(=O)(=O)C(C)(C)C [Example 17, 3-(6-(tert-butylsulfonyl)-7-methoxyimidazo[1,2-a]pyridin-3-yl)-1-methyl-N-(pyrazolo[1,5-a]pyridin-3-ylmethyl)-1H-pyrazole-5-carboxamide] | 55 to 80% | > 1000 nM | > 2500 nM | – | –
COc1cc2ncc(-c3cc(C(=O)NCc4n[nH]c5cccnc45)n(C)n3)n2cc1S(=O)(=O)C(C)(C)C [Example 18, N-((1H-pyrazolo[4,3-b]pyridin-3-yl)methyl)-3-(6-(tert-butylsulfonyl)-7-methoxyimidazo[1,2-a]pyridin-3-yl)-1-methyl-1H-pyrazole-5-carboxamide] | ≥ 80% | 10 to 100 nM | 500 to 2500 nM | – | –
